Experimental data reported in US9227982B2 (NOVARTIS AG, priority 2011, dated 2016).
Where two headings read alike, the source gives them in different places.

Key:
[1] = tested on: Wnt ligand-induced signaling; experiment: Wnt-responsive Super-TOpFlash (STF) luciferase reporter gene assay in HEK293 cells; assay type: cell-based; settings: 20% Wnt3A conditioned medium, read-out: HEK293STF IC50
Procedure: Cellular Reporter Gene Assay to Determine Compound Inhibition of Wnt Signaling Activity
Compound activity in inhibiting Wnt ligand-induced signaling was measured using a Wnt-responsive Super-TOpFlash (STF) luciferase reporter gene assay in HEK293 cells. On day 1 of the assay, cells were plated at a density of 8000 cells per well of 384-well plate in 25 μl medium containing 5% fetal bovine serum (FBS). On the second day, […] condition medium (CM) produced from mouse L cells was added to the cells to induce Wnt signaling, followed by addition of 5 μL of compounds each well in 10-point serial dilution. On the third day, the luciferase activity was measured by the Bright-Glo™ Luciferase Assay System following manufacture's protocol (Promega, E2620). The Inhibition was calculated as: (Maximum Wnt-induced signaling−Sample)/(Maximum Wnt-induced signaling−Background)*100. “Maximum Wnt-induced signaling” is the STF signal level induced by 20% Wnt3A CM without compound; and “Background” is the STF signal level without the addition of Wnt3A CM or compound.

[2] = biological target: human tankyrase 1 PARP catalytic domain, TNKS1P (Homo sapiens (Human), UniProt O95271); experiment: TNKS1 autoparsylation enzymatic assay (LC/MS detection of nicotinamide); assay type: biochemical; settings: 20 nM enzyme, 250 μM β-NAD+, 60 min, read-out: TNKS1 AP IC50
human tankyrase 1 PARP catalytic domain, TNKS1P, sequence (O95271 1112-1317): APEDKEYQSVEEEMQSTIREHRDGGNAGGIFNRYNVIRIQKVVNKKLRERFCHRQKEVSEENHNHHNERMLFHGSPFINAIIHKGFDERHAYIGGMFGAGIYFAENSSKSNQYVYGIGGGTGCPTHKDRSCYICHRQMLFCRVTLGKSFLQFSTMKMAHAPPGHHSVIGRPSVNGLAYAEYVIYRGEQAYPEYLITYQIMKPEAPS
From the text: (§1) The human tankyrase 1 PARP catalytic domain, TNKS1P, was cloned into a pDONR221 vector using the Invitrogen Gateway Technology. This entry clone was then subcloned into the destination vector pDEST20 to obtain the N-terminal Glutathione S-transferase (GST)-tagged fusion protein. GST-TNKS1P was then expressed in Sf21 cells using the Invitrogen baculovirus expression system (Invitrogen-Bac-to-Bac® Baculovirus Expression System, Version D). The protein was purified by a GSTrap column (GE Healthcare). The N-terminal GST-tagged tankyrase 2 protein PARP domain, TNKS2P, was cloned, expressed, and purified in a similar manner. Human PARP1 (Cat. No. 4668-100-01) and activated DNA (Cat. No. 4671-096-06) were purchased from Trevigen, Inc. PARP2 (Cat. No. ALX-201-064-C020) was purchased from Alexis Biochemical.
The % Inhibition was calculated as: (Control−Sample)/(Control−Background)*100. “Control” is the average value of 8 wells without compound; and “Background” is the average of 8 wells mixed with 5× quenching solution measured prior to initiation of the reaction.

[3] = biological target: TNKS2 (GST-tagged tankyrase 2 PARP domain, TNKS2P) (Homo sapiens (Human), UniProt Q9H2K2); experiment: TNKS2 autoparsylation enzymatic assay (LC/MS detection of nicotinamide); assay type: biochemical; settings: 20 nM enzyme, 250 μM β-NAD+, 60 min, read-out: TNKS2 AP IC50
TNKS2 (GST-tagged tankyrase 2 PARP domain, TNKS2P), sequence (Q9H2K2 959-1164): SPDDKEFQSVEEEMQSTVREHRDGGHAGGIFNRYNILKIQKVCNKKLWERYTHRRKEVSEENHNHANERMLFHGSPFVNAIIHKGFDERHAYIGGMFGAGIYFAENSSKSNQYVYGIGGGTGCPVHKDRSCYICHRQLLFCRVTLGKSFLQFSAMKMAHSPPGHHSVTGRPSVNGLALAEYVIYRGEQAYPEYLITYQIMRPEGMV
From the text: as §1, with “manner.” for “manner. Human PARP1 (Cat. No. 4668-100-01) and activated DNA (Cat. No. 4671-096-06) were purchased from Trevigen, Inc. PARP2 (Cat. No. ALX-201-064-C020) was purchased from Alexis Biochemical.”
The % Inhibition was calculated as: (Control−Sample)/(Control−Background)*100.

Molecule | IC50 [1] [µM] | IC50 [2] [µM] | IC50 ([1]; Homo sapiens) [µM] | IC50 [3] [µM]
N-((4-Oxo-4,5,7,8-tetrahydro-3H-pyrano[4,3-d]pyrimidin-2-yl)methyl)-3-(pyridin-4-yl)-N-(thiophen-2-ylmethyl)propanamide [Example 12] | 41 ± 1.6 | 14.6 ± 0.4 | – | –
O=c1[nH]c(CN(Cc2cccs2)S(=O)(=O)Cc2ccccc2)nc2c1COCC2 [Example 9, N-((4-Oxo-4,5,7,8-tetrahydro-3H-pyrano[4,3-d]pyrimidin-2-yl)methyl)-1-phenyl-N-(thiophen-2-ylmethyl)methanesulfonamide] | – | – | 0.9 ± 0.23 | –
O=C(CCc1cccc(F)c1)N(Cc1nc2c(c(=O)[nH]1)COCC2)Cc1cccs1 [Example 5, 3-(3-Fluorophenyl)-N-((4-oxo-4,5,7,8-tetrahydro-3H-pyrano[4,3-d]pyrimidin-2-yl)methyl)-N-(thiophen-2-ylmethyl)propanamide] | – | 1.58 ± 0.014 | – | –
O=c1[nH]c(CN(Cc2cccs2)S(=O)(=O)CCc2ccccc2)nc2c1COCC2 [Example 10, 2-Phenyl-ethanesulfonic acid (4-oxo-3,5,7,8-tetrahydro-4H-pyrano[4,3-d]pyrimidin-2-ylmethyl)-thiophen-2-ylmethyl-amide] | – | – | 2.43 ± 0.94 | –
O=C(CCc1ccccc1O)N(Cc1nc2c(c(=O)[nH]1)COCC2)Cc1cccs1 [Example 6, 3-(2-Hydroxy-phenyl)-N-(4-oxo 3,5,7,8-tetrahydro-4H-pyrano[4,3-d]pyrimidin-2-ylmethyl)-N-thiophen-2-ylmethyl-propionamide] | – | 5.19 ± 0.227 | – | –
O=C(CCc1ccccc1)N(Cc1nc2c(c(=O)[nH]1)COCC2)CC1CCCC1 [Example 13, N-Cyclopentylmethyl-N-(4-oxo-3,5,7,8-tetrahydro-4H-pyrano[4,3-d]pyrimidin-2-ylmethyl)-3-phenyl-propionamide] | – | 4.78 ± 0.36 | 4.09 ± 1.29 | 0.995 ± 0.094
C[C@@H](c1ccccc1)N(Cc1nc2c(c(=O)[nH]1)COCC2)S(=O)(=O)Cc1ccccc1 [Example 24, (S)—N-((4-Oxo-4,5,7,8-tetrahydro-3H-pyrano[4,3-c]pyrimidin-2-yl)methyl)-1-phenyl-N-(1-phenylethyl)methanesulfonamide] | – | 18.1 ± 1.9 | 15.7 ± 0.8 | 3.12 ± 0.06
O=C(CCc1ccncc1)N(Cc1nc2c(c(=O)[nH]1)COCC2)Cc1cccs1 [Example 11, N-((4-Oxo-4,5,7,8-tetrahydro-3H-pyrano[4,3-d]pyrimidin-2-yl)methyl)-3-(pyridin-4-yl)-N-(thiophen-2-ylmethyl)propanamide] | – | 4.17 ± 0.26 | – | –
O=C(CCc1ccccc1)N(Cc1nc2c(c(=O)[nH]1)COCC2)Cc1ncco1 [Example 20, N-(Oxazol-2-ylmethyl)-N-((4-oxo-4,5,7,8-tetrahydro-3H-pyrano[4,3-d]pyrimidin-2-yl)methyl)-3-phenylpropanamide] | – | 4.6 ± 0.2 | 14.3 ± 4 | 1.7 ± 0.03
O=C(CCc1ccccc1F)N(Cc1ccc[nH]1)Cc1nc2c(c(=O)[nH]1)COCC2 [Example 26, N-((1H-Pyrrol-2-yl)methyl)-3-(2-fluorophenyl)-N-((4-oxo-4,5,7,8-tetrahydro-3H-pyrano[4,3-d]pyrimidin-2-yl)methyl)propanamide] | – | 1.17 ± 0.12 | 5 ± 0.72 | 0.235 ± 0.024
CCN(Cc1nc2c(c(=O)[nH]1)COCC2)C(=O)CCc1ccccc1 [Example 15, N-Ethyl-N-((4-oxo-4,5,7,8-tetrahydro-3H-pyrano[4,3-d]pyrimidin-2-yl)methyl)-3-phenylpropanamide] | – | > 19 | – | –
CC(C)N(Cc1nc2c(c(=O)[nH]1)COCC2)C(=O)CCc1ccccc1 [Example 16, N-Isopropyl-N-((4-oxo-4,5,7,8-tetrahydro-3H-pyrano[4,3-d]pyrimidin-2-yl)methyl)-3-phenylpropanamide] | – | > 19 | 34.9 | 5.39 ± 1.63
CC(C)(C)C(=O)CN(Cc1nc2c(c(=O)[nH]1)COCC2)C(=O)CCc1ccccc1 [Example 17, N-(3,3-Dimethyl-2-oxobutyl)-N-((4-oxo-4,5,7,8-tetrahydro-3H-pyrano[4,3-d]pyrimidin-2-yl)methyl)-3-phenylpropanamide] | – | 17.1 ± 2 | 14.3 ± 1 | 2.99 ± 0.036
O=C(CCc1ccccc1)N(Cc1nc2c(c(=O)[nH]1)COCC2)Cc1nccs1 [Example 19, N-((4-Oxo-4,5,7,8-tetrahydro-3H-pyrano[4,3-d]pyrimidin-2-yl)methyl)-3-phenyl-N-(thiazol-2-ylmethyl)propanamide] | – | 11.4 ± 0.4 | 8.56 ± 0.42 | 2.03 ± 0.04
O=C(CCc1c[nH]c2ccccc12)N(Cc1nc2c(c(=O)[nH]1)COCC2)Cc1cccs1 [Example 3, 3-(1H-Indol-3-yl)-N-(4-oxo-3,5,7,8-tetrahydro-4H-pyrano[4,3-d]pyrimidin-2-ylmethyl)-N-thiophen-2-ylmethyl-propionamide] | – | – | 9.31 ± 3.9 | –
O=C(CCc1ccccc1)N(CCO)Cc1nc2c(c(=O)[nH]1)COCC2 [Example 23, N-(2-Hydroxy-ethyl)-N-(4-oxo-3,5,7,8-tetrahydro-4H-pyrano[4,3-d]pyrimidin-2-ylmethyl)-3-phenyl-propionamide] | – | 16.93 ± 0.02 | > 50 | 2.68 ± 0.077
O=C(CCc1ccccc1)N(Cc1nc2c(c(=O)[nH]1)COCC2)Cc1cncs1 [Example 22, N-((4-Oxo-4,5,7,8-tetrahydro-3H-pyrano[4,3-d]pyrimidin-2-yl)methyl)-3-phenyl-N-(thiazol-5-ylmethyl)propanamide] | – | 17.5 ± 1 | 18.2 ± 4.5 | 3.48 ± 0.71
C[C@H](c1ccccc1)N(Cc1nc2c(c(=O)[nH]1)COCC2)S(=O)(=O)Cc1ccccc1 [Example 25, (R)—N-((4-Oxo-4,5,7,8-tetrahydro-3H-pyrano[4,3-d]pyrimidin-2-yl)methyl)-1-phenyl-N-(1-phenylethyl)methanesulfonamide] | – | 9.08 ± 0.76 | 23.2 ± 7.9 | 1.85 ± 0.06
O=C(CCc1ccccc1)N(Cc1nc2c(c(=O)[nH]1)COCC2)Cc1ccc(Cl)s1 [Example 21, N-((5-Chlorothiophen-2-yl)methyl)-N-((4-oxo-4,5,7,8-tetrahydro-3H-pyrano[4,3-d]pyrimidin-2-yl)methyl)-3-phenylpropanamide] | – | 1.61 ± 0.11 | 1.97 ± 0.56 | 0.318 ± 0.009
O=C(CCc1ccc(O)cc1)N(Cc1nc2c(c(=O)[nH]1)COCC2)Cc1cccs1 [Example 8, 3-(4-Hydroxy-phenyl)-N-(4-oxo-3,5,7,8-tetrahydro-4H-pyrano[4,3-d]pyrimidin-2-ylmethyl)-N-thiophen-2-ylmethyl-propionamide] | – | 1.42 ± 0.04 | – | –
O=C(CCc1ccccc1)N(Cc1nc2c(c(=O)[nH]1)COCC2)Cc1ccccc1F [Example 14, N-(2-Fluorobenzyl)-N-((4-oxo-4,5,7,8-tetrahydro-3H-pyrano[4,3-d]pyrimidin-2-yl)methyl)-3-phenylpropanamide] | – | 5.61 ± 0.24 | 4.09 ± 0.1 | 1.05 ± 0.05
